Assay results from patent US20240317780A1, “RADIOPHARMACEUTICAL SOMATOSTATIN RECEPTOR LIGANDS AND PRECURSORS THEREOF” (Technische Universität München, priority 2021, published 2024).
Read-outs that look alike come from different tables or passages of the source.

Legend:
[1] = target: T1, SST2 (Homo sapiens, UniProt P30874); test: Determination of IC50: competitive binding against [125I]TOC on SST2-transfected CHO cells; details: [125I]TOC reference radioligand, 60 min room temperature
T1 construct: expressed in transfected cells; host or cells: CHO (Chinese hamster ovary) cells
T1 sequence (P30874 whole entry, species assumed): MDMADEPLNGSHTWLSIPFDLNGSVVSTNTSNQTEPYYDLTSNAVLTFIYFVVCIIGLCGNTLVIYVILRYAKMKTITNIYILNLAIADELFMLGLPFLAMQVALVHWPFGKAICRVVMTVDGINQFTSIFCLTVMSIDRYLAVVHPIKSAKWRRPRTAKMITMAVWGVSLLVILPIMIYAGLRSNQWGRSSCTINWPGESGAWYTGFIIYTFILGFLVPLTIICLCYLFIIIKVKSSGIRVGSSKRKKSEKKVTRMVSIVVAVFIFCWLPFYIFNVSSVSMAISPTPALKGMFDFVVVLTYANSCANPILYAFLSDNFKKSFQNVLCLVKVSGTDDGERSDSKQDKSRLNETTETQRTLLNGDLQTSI

[2] = Biodistribution of 18F-labeled SST2 ligands in AR42J tumor-bearing mice; assay type: in vivo; details: female, CD1 nu/nu, mouse, iv, total radioactivity, 1 h post injection, tail vein
Experimental: All animal experiments were conducted in accordance with general animal welfare regulations in Germany and the institutional guidelines for the care and use of animals. To establish tumor xenografts, AR42J cells (5×10^6 cells/100 μL) were suspended in Dulbecco modified Eagle medium/Nutrition Mixture F-12 with Glutamax-1 (1:1) and inoculated subcutaneously onto the right shoulder of 8 weeks old, female CD1 nu/nu mice (Charles River, Sulzfeld, Germany). Mice were used for experiments when tumors had grown to a diameter of 5-9 mm (7-15 days after inoculation).
Approximately 0.5-2.0 MBq (0.05-0.25 nmol) of the ^18F-labeled SST2-ligands were injected into the tail vein of AR42J tumor-bearing female CD1 nu/nu mice and sacrificed after 1 h post injection (n=3-5). Selected organs were removed, weighted and measured in a γ-counter.
The Tables 4, 5, and 6 summarize the results of the in vivo mouse experiments. For all biodistribution studies, female CD1 nu/nu mice with AR42J tumor xenografts, were used and sacrificed 1 h post injection.

[3] = AR42J tumor, AR42J tumor, read-out: Tumor % ID/g ± SD
[4] = adrenal glands, read-out: Adrenal glands % ID/g ± SD
[5] = blood, read-out: Blood % ID/g ± SD
[6] = bone, read-out: Bone % ID/g ± SD
[7] = heart, read-out: Heart % ID/g ± SD
[8] = intestine, read-out: Intestine % ID/g ± SD
[9] = kidneys, read-out: Kidneys % ID/g ± SD
[10] = liver, read-out: Liver % ID/g ± SD
[11] = lung, read-out: Lung % ID/g ± SD
[12] = muscle, read-out: Muscle % ID/g ± SD
[13] = pancreas, read-out: Pancreas % ID/g ± SD
[14] = spleen, read-out: Spleen % ID/g ± SD
[15] = stomach, read-out: Stomach % ID/g ± SD

SMILES	IC50 [1]	tissue uptake at 1 h [2, 3]	tissue uptake at 1 h [2, 4]	tissue uptake at 1 h [2, 5]	tissue uptake at 1 h [2, 6]	tissue uptake at 1 h [2, 7]	tissue uptake at 1 h [2, 8]	tissue uptake at 1 h [2, 9]	tissue uptake at 1 h [2, 10]	tissue uptake at 1 h [2, 11]	tissue uptake at 1 h [2, 12]	tissue uptake at 1 h [2, 13]	tissue uptake at 1 h [2, 14]	tissue uptake at 1 h [2, 15]
C[C@@H](O)[C@H](NC(=O)C1CSSCC(NC(=O)C(Cc2ccccc2)NC(=O)CNC(=O)CNC(=O)[C@@H](CC(=O)O)NC(=O)C(CC(=O)O)NC(=O)[C@@H](CNC(=O)CN2CCN(CC(=O)O)CCN(CC(=O)O)CCN(CC(=O)O)CC2)NC(=O)C(CN)NC(=O)c2ccc([Si](F)(C(C)(C)C)C(C)(C)C)cc2)C(=O)N[C@@H](Cc2ccc(O)cc2)C(=O)NC(Cc2c[nH]c3ccccc23)C(=O)N[C@@H](CCCCN)C(=O)N[C@@H]([C@@H](C)O)C(=O)N1)C(=O)O (stereo partly drawn) (natGa complex, metal not drawn) [[Ga]19]	11.2 ± 1.04 nM	36.3 ± 4.54 %ID/g	2.56 ± 0.21 %ID/g	2.24 ± 0.3 %ID/g	1.96 ± 0.38 %ID/g	0.88 ± 0.11 %ID/g	1.39 ± 0.24 %ID/g	131 ± 26.7 %ID/g	2.47 ± 0.14 %ID/g	4.84 ± 0.98 %ID/g	0.27 ± 0.04 %ID/g	12.5 ± 1.87 %ID/g	0.93 ± 0.15 %ID/g	7.99 ± 2.08 %ID/g
C[C@@H](O)[C@H](NC(=O)C1CSSCC(NC(=O)C(Cc2ccccc2)NC(=O)CNC(=O)CNC(=O)CNC(=O)C(CC(=O)O)NC(=O)[C@@H](CC(=O)O)NC(=O)C(CCCNC(N)=O)NC(=O)[C@@H](CNC(=O)C[N+](C)(C)Cc2ccc([Si](F)(C(C)(C)C)C(C)(C)C)cc2)NC(=O)CN2CCN(CC(=O)O)CCN(CC(=O)O)CCN(CC(=O)O)CC2)C(=O)N[C@@H](Cc2ccc(O)cc2)C(=O)NC(Cc2c[nH]c3ccccc23)C(=O)N[C@@H](CCCCN)C(=O)N[C@@H]([C@@H](C)O)C(=O)N1)C(=O)O (stereo partly drawn) (natGa complex, metal not drawn) [[Ga]46]	4.79 ± 0.84 nM	23.4 ± 1.07 %ID/g	1.71 ± 0.38 %ID/g	0.57 ± 0.24 %ID/g	1.21 ± 0.24 %ID/g	0.3 ± 0.04 %ID/g	1.43 ± 0.35 %ID/g	12.6 ± 1.58 %ID/g	0.83 ± 0.14 %ID/g	3.22 ± 0.53 %ID/g	0.1 ± 0.02 %ID/g	11.1 ± 2.61 %ID/g	0.57 ± 0.14 %ID/g	6.51 ± 1.64 %ID/g
C[C@@H](O)[C@H](NC(=O)C1CSSCC(NC(=O)C(Cc2ccccc2)NC(=O)CNC(=O)CNC(=O)CNC(=O)C(CC(=O)O)NC(=O)[C@@H](CC(=O)O)NC(=O)C(CNC(=O)CN2CCN(CC(=O)O)CCN(CC(=O)O)CCN(CC(=O)O)CC2)NC(=O)C[N+](C)(C)Cc2ccc([Si](F)(C(C)(C)C)C(C)(C)C)cc2)C(=O)N[C@@H](Cc2ccc(O)cc2)C(=O)NC(Cc2c[nH]c3ccccc23)C(=O)N[C@@H](CCCCN)C(=O)N[C@@H]([C@@H](C)O)C(=O)N1)C(=O)O (stereo partly drawn) (natGa complex, metal not drawn) [[Ga]50]	3.01 ± 0.03 nM	31.8 ± 2.49 %ID/g	2.39 ± 0.53 %ID/g	0.5 ± 0.21 %ID/g	1.23 ± 0.41 %ID/g	0.27 ± 0.03 %ID/g	1.84 ± 0.45 %ID/g	12.3 ± 3.4 %ID/g	1.22 ± 0.18 %ID/g	3.73 ± 0.57 %ID/g	0.1 ± 0.03 %ID/g	17.3 ± 2.87 %ID/g	0.55 ± 0.06 %ID/g	9.54 ± 1.83 %ID/g
